In ChEMBL document CHEMBL1759932, “Design, synthesis and structure-activity relationships of (indo-3-yl) heterocyclic derivatives as agonists of the CB1 receptor. Discovery of a clinical candidate” (Bioorg Med Chem Lett, 2011):

Columns and labels:
[1] = Clearance in ICR mouse; type: ADME, organism-based; details: in vivo
[2] = Volume of distribution at steady state in ICR mouse; type: ADME, organism-based; details: in vivo, read-out: Vdss
[3] = Ratio of Cmax in brain to plasma in ICR mouse; type: ADME; details: brain and plasma
[4] = Half life in ICR mouse; type: ADME, organism-based; details: in vivo
[5] = Intrinsic clearance in human liver microsomes; type: ADME, Microsome
[6] = Intrinsic clearance in rat liver microsomes; type: ADME, Microsome
[7] = Clearance in Beagle dog; type: ADME, organism-based, Canis lupus familiaris; details: in vivo
[8] = Volume of distribution at steady state in Wistar rat; type: ADME, organism-based; details: in vivo, read-out: Vdss
[9] = Intrinsic clearance in mouse hepatic microsomes; type: ADME, Microsome; details: liver microsomes
[10] = Intrinsic clearance in dog hepatic microsomes; type: ADME, Canis lupus familiaris, Liver, Microsome
[11] = Half life in Wistar rat; type: ADME, organism-based; details: in vivo
[12] = Volume of distribution at steady state in Beagle dog; type: ADME, organism-based, Canis lupus familiaris; details: in vivo, read-out: Vdss
[13] = Clearance in Wistar rat; type: ADME, organism-based; details: in vivo
[14] = Half life in Beagle dog; type: ADME, organism-based, Canis lupus familiaris; details: in vivo

Structure (SMILES)	microsomal CLint [5] [µL/min/mg]	microsomal CLint [6] [µL/min/mg]	also measured
CCc1cccc2c(-c3nsc(CN4CCCC4)n3)cn(CC3CCCCC3)c12.Cl			clearance [1]: 28 mL/min/kg; Vd [2]: 1.4 L/kg; Kp [3]: 0.05; half-life [4]: 1.2 h
COCCN(C)Cc1csc(-c2cn(CC3CCCCC3)c3c(Cl)cccc23)n1	36	22	
CN(CCO)Cc1csc(-c2cn(CC3CCOCC3)c3c(Cl)cccc23)n1	< 16	167	
CC(C)N(CCO)Cc1csc(-c2cn(CC3CCOCC3)c3c(Cl)cccc23)n1	161	> 160	clearance [7]: 28 mL/min/kg; Vd [8]: 15 L/kg; microsomal CLint [9]: 176 µL/min/mg; clearance [1]: 159 mL/min/kg; CL [10]: 0.131 mL/min/kg; Vd [2]: 11.3 L/kg; Kp [3]: 3.9; half-life [11]: 1.6 h; Vd [12]: 5 L/kg; half-life [4]: 1.38 h; clearance [13]: 127 mL/min/kg; half-life [14]: 3 h
OC1CCN(Cc2csc(-c3cn(CC4CCOCC4)c4c(Cl)cccc34)n2)CC1	12	16	
COC1CCN(Cc2csc(-c3cn(CC4CCOCC4)c4c(Cl)cccc34)n2)CC1	80.4	> 270	
Clc1cccc2c(-c3nc(CN4CCOCC4)cs3)cn(CC3CCOCC3)c12	97.9	> 270	
OCCN(CCO)Cc1csc(-c2cn(CC3CCOCC3)c3c(Cl)cccc23)n1	111	> 270	
CCc1sc(-c2cn(CC3CCOCC3)c3c(Cl)cccc23)nc1CN(CC)CCO	114	> 270	
